# Measured values from ChEMBL document CHEMBL1201862, “PubChem BioAssay data set” (2004).
# Activity calls are given as the source filed them.
# Legend:
# [1] = molecular target: T1, Tyrosine-protein phosphatase non-receptor type 7 (Homo sapiens, UniProt P35236); type: functional
# T1 sequence (P35236 whole entry): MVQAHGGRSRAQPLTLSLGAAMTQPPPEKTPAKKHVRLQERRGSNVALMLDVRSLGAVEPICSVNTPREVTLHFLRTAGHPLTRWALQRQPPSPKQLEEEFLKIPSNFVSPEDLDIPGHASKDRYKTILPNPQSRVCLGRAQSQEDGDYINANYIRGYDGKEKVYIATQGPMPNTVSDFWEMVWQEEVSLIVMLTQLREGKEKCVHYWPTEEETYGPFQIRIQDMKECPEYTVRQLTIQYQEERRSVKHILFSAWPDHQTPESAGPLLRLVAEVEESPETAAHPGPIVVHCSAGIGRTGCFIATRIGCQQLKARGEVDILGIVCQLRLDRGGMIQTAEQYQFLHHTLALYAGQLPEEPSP
# [2] = molecular target: Large T antigen (Simian virus 40, UniProt P03070); type: functional, Betapolyomavirus macacae;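 note: Confirmatory-stage PubChem screen for compounds that inhibit SV40 T antigen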
# [3] = molecular target: T2, Tyrosine-protein phosphatase non-receptor type 22 (Homo sapiens, UniProt Q9Y2R2); type: functional
# T2 sequence (Q9Y2R2 whole entry): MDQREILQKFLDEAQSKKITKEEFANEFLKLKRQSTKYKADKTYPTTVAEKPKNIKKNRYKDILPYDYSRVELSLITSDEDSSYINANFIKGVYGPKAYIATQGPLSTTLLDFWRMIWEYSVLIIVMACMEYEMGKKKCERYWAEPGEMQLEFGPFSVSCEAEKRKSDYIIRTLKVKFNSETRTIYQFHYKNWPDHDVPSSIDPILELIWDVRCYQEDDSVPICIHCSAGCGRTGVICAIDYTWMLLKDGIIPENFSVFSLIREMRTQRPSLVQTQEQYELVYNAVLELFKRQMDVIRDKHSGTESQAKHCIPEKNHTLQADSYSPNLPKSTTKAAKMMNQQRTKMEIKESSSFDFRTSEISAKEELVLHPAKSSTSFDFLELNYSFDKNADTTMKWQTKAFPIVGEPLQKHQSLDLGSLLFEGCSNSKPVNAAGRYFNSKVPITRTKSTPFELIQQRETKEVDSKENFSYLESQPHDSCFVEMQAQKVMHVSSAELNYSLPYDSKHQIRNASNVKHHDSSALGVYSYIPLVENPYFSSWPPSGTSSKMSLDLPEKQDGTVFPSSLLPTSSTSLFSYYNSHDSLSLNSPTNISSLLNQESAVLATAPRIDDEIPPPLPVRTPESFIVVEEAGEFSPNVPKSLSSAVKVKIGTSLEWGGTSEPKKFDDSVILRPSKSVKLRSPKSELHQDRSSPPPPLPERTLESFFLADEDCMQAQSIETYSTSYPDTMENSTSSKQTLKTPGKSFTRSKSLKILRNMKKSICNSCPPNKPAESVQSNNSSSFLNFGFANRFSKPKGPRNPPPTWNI
# [4] = molecular target: T2, Tyrosine-protein phosphatase non-receptor type 22; type: functional; remark: listed apart in the source
# [5] = test system: HEK293; experiment: cells; type: functional, cell-based; details: Homo sapiens
# [6] = molecular target: T3, Nucleotide-binding oligomerization domain-containing protein 2 (Homo sapiens, UniProt Q9HC29); experiment: PubChem AID 2334; type: functional
# [7] = test system: HEK293; experiment: cells; type: functional, cell-based; details: Homo sapiens; remark: listed apart in the source
# [8] = test system: HEK293; experiment: cells; type: functional, cell-based; details: Homo sapiens; remark: listed apart in the source
# [9] = test system: HEK293; experiment: cells; details: Homo sapiens
# [10] = molecular target: Tumor necrosis factor (Homo sapiens, UniProt P01375); experiment: TNFa-triggered NF-kB activation inhibitors, SAR follow-up, cell-based, revised (AID 2337); type: functional
# [11] = test system: HEK293; experiment: NOD2 signaling inhibitors in MDP-stimulated cells, cell-based, uHTS, luminescence (AID 2001); type: functional; details: Homo sapiens
# [12] = molecular target: T3, Nucleotide-binding oligomerization domain-containing protein 2; experiment: NOD2 signaling inhibitors, cell-based, luminescence, uHTS, HEK293 (AID 1566); type: functional
# [13] = test system: HEK293; experiment: NOD1 signaling inhibitors, primary screen, cell-based, luminescence, uHTS (AID 1578); type: functional; details: Homo sapiens
# [14] = molecular target: Nucleotide-binding oligomerization domain-containing protein 1 (Homo sapiens, UniProt Q9Y239); experiment: NOD1 signaling inhibitors, SAR follow-up, revised (AID 2333); type: functional
# [15] = molecular target: T4, Carboxy-terminal domain RNA polymerase II polypeptide A small phosphatase 1 (Homo sapiens, UniProt Q9GZU7); experiment: inhibitors of CTDSP1, concentration-response testing, biochemical assay, absorbance-based, actives from ultra-high-throughput screening (AID 540297); type: functional
# T4 sequence (Q9GZU7 whole entry): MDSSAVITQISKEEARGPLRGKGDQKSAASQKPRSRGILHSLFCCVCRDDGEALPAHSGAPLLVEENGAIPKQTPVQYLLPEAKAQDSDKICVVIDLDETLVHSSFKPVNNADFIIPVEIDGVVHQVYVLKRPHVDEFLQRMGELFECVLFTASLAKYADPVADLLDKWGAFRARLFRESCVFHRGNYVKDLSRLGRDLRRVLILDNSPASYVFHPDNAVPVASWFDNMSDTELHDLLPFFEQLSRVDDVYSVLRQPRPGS
# [16] = test system: Streptococcus; experiment: Group A Streptococcus viability loss, dose response, counter-screen for streptokinase expression inhibitor project, luminescence, BacTiterGlo (AID 1915); type: functional, organism-based;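 note: potency for reduction of bacterial viability or growth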
# [17] = molecular target: T5, E3 ubiquitin-protein ligase XIAP (Homo sapiens, UniProt P98170); experiment: XIAP antagonists, biochemical, IAP family, fluorescence polarization (AID 1018); type: functional
# [18] = test system: Streptococcus sp. 'group A'; experiment: growth inhibition of control SK(-) GAS strain, dose response, counter-screen for streptokinase expression inhibitor project, luminescence, kanamycin, BacTiterGlo, confirmation (AID 1900); type: functional, organism-based
# [19] = molecular target: T6, Streptokinase A (Streptococcus pyogenes serotype M1, UniProt P10520); experiment: S. pyogenes streptokinase expression inhibitors, potency, dose response, plasminogen activation absorbance, OD405 (AID 1914); type: functional, Streptococcus pyogenes M1 GAS;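 note: secreted streptokinase activity via plasminogen activation per viability signal from cell pellet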
# T6 sequence (P10520 whole entry): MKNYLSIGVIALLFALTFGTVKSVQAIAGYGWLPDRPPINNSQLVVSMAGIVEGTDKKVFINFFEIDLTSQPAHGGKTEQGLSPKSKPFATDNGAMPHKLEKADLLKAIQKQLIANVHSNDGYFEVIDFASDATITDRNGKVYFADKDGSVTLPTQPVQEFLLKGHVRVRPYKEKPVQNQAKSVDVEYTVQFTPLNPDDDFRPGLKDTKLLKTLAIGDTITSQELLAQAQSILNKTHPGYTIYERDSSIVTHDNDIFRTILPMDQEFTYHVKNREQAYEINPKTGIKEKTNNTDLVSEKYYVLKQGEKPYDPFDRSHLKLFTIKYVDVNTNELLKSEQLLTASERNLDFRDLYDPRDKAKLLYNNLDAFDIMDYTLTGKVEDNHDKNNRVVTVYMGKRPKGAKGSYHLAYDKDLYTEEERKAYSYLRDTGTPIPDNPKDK
# [20] = molecular target: T5, E3 ubiquitin-protein ligase XIAP; experiment: Counter Screen using XIAP-Bir3 for Chemical Antagonists of Bir1/2 domains of IAP-family anti-apoptotic proteins. [Related pubchem assays (depositor defined):AID1018, AID1449, AID1514, AID1638, AID1749, AID1750, AID488957, AID488963]
# [21] = molecular target: Phospholipase A2 (Homo sapiens, UniProt P04054); type: functional;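 note: confirmatory dose-response counterscreen on phospholipase A2, testing hits that came from an ultra-high-throughput screen for ATG4B inhibitors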
# [22] = molecular target: T7, Dual specificity protein phosphatase 6 (Rattus norvegicus, UniProt Q64346); experiment: MKP-3 phosphatase inhibitors, primary screen, biochemical, rat enzyme, in vitro (AID 425)
# T7 sequence (Q64346 whole entry): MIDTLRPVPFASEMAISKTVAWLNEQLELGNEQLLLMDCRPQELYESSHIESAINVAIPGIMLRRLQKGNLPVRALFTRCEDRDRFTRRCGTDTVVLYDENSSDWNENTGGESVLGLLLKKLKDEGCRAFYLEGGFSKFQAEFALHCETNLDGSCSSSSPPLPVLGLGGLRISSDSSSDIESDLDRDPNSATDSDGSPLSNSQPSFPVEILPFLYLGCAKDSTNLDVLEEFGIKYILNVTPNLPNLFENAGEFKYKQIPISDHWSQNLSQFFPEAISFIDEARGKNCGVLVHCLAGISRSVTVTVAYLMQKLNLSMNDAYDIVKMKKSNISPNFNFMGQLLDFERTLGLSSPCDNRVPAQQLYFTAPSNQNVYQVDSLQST
# [23] = molecular target: T8, Dual specificity protein phosphatase 3 (Homo sapiens, UniProt P51452); experiment: VHR1 phosphatase inhibitors, biochemical (AID 1878)
# [24] = molecular target: T8, Dual specificity protein phosphatase 3; experiment: VHR1 phosphatase inhibitors, primary screen, biochemical, absorbance, uHTS (AID 1654)
# [25] = molecular target: T9, Cysteine protease ATG4B (Homo sapiens, UniProt Q9Y4P1); type: functional;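 note: Fluorescence-based dose-response confirmation assay measuring inhibition of ATG4B activity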
# T9 sequence (Q9Y4P1 whole entry): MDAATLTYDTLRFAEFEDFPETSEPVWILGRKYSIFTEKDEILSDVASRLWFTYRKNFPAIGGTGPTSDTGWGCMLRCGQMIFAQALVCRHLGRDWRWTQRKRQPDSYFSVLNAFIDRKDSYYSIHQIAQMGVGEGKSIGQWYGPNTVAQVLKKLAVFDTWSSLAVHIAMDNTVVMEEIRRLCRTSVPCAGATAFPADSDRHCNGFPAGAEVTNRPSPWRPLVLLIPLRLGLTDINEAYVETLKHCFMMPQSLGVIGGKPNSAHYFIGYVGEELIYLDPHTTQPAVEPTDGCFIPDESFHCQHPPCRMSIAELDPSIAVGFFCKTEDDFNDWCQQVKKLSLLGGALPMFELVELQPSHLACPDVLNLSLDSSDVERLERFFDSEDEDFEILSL
# T3 sequence (Q9HC29 whole entry, the tested form may be a part): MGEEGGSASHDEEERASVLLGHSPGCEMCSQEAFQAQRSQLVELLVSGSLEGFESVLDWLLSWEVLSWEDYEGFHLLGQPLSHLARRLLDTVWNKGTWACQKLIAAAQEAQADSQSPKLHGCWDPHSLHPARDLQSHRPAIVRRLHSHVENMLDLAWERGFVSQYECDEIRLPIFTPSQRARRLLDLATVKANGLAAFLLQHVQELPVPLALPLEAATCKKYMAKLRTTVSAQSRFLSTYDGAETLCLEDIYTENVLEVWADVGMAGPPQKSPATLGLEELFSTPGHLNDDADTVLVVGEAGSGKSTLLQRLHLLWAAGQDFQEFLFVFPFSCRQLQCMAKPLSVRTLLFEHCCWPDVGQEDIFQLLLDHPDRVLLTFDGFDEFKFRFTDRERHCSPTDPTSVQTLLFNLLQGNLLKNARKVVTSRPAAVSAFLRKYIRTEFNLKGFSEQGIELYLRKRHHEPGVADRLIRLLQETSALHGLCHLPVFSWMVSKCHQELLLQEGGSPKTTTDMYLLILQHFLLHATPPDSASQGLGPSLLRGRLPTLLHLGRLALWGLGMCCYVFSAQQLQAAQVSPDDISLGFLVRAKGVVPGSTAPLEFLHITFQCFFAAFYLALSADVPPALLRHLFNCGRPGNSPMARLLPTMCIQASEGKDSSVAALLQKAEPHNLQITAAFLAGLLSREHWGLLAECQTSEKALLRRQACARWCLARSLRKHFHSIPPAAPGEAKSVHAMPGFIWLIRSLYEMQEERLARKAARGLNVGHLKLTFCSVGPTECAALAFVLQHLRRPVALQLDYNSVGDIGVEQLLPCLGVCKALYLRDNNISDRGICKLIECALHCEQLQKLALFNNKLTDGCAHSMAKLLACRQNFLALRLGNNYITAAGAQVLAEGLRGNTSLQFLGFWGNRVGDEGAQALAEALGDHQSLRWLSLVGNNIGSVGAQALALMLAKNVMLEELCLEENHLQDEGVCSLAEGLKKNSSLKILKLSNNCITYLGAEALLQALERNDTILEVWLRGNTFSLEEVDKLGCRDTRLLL
# T5 sequence (P98170 whole entry): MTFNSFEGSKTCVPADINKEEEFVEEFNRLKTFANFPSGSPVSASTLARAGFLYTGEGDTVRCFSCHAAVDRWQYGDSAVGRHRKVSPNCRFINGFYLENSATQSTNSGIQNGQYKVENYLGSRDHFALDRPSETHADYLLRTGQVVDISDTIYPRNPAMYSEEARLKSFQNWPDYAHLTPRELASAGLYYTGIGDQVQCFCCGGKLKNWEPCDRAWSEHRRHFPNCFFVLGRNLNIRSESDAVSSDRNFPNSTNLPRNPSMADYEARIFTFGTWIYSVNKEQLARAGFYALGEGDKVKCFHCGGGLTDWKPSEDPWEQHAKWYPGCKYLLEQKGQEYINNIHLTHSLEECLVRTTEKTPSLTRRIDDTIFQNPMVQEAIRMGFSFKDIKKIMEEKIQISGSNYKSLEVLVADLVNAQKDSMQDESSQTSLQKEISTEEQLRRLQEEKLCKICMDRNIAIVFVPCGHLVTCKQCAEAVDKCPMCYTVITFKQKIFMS
# Chain of Nucleotide-binding oligomerization domain-containing protein 1 (Q9Y239 whole entry, the tested form may be a part): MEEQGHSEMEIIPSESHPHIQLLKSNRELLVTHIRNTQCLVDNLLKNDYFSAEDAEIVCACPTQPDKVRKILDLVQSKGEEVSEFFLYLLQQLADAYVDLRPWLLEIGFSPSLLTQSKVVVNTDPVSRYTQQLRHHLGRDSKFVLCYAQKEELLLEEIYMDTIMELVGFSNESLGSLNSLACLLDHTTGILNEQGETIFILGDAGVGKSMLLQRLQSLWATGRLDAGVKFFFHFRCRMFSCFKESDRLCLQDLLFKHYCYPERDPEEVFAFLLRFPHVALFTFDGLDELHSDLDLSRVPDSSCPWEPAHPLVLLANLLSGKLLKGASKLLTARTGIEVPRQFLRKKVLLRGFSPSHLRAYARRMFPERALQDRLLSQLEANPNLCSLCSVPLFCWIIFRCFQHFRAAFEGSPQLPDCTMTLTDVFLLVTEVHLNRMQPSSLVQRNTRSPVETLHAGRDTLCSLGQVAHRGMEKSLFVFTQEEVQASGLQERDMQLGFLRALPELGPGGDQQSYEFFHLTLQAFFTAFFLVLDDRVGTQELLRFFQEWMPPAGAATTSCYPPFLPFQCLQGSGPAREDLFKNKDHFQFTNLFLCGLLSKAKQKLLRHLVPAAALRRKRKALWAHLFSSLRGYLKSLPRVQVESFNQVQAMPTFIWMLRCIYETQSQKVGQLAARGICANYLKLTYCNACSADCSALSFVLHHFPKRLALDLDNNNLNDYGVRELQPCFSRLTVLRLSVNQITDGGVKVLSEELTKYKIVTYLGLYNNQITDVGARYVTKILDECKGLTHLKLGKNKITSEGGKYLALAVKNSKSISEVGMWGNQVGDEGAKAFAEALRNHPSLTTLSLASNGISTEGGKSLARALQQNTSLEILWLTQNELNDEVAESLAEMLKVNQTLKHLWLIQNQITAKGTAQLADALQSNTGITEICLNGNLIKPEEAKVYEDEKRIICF
# Chain of Tumor necrosis factor (P01375 whole entry): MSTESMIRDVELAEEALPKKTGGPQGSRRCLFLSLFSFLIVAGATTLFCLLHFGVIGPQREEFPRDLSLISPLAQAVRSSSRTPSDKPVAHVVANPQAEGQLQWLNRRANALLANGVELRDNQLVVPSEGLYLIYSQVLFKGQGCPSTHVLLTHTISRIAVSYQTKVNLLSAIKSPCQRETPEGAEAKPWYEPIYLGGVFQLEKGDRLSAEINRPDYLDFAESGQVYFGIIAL
# T8 sequence (P51452 whole entry): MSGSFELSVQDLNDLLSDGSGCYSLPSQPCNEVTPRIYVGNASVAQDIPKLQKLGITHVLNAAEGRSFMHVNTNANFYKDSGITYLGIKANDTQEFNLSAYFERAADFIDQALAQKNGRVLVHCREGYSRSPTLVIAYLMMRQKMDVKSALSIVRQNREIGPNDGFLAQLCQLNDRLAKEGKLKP
# Chain of Phospholipase A2 (P04054 whole entry): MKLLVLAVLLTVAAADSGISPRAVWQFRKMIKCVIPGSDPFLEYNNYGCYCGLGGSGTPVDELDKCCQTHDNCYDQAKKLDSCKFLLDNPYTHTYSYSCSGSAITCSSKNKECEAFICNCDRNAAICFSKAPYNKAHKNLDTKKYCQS
# Chain of Large T antigen (P03070 whole entry): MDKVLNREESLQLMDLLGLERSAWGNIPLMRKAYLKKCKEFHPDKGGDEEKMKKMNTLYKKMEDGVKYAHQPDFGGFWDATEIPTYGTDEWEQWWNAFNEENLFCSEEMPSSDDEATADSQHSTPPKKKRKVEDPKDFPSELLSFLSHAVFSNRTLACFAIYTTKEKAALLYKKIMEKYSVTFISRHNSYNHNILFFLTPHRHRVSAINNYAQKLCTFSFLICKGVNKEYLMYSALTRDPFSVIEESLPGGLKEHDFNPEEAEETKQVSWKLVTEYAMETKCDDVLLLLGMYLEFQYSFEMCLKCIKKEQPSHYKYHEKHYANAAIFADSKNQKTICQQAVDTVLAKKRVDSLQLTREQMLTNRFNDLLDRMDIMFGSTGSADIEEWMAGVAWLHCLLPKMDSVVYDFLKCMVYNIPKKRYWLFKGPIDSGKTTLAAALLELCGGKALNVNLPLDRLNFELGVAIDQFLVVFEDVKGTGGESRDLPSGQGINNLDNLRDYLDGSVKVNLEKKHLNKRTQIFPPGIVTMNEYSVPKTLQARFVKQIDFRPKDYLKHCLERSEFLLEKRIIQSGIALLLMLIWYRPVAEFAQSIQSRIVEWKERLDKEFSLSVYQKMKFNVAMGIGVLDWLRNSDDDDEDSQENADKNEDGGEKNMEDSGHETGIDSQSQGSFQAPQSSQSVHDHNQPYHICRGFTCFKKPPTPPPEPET
structure (smiles),measurement,setting,value
C=CCc1cccc2cc(C(=O)Nc3ccc(S(=O)(=O)Nc4nnc(CC)s4)cc3)c(=O)oc12,IC50,[1],6.18 µM (active)
same,IC50,[2],83.2 µM (active)
same,IC50,[3],8.58 µM (active)
same,IC50,[4],9.43 µM (active)
O=C(c1ccc(S(=O)(=O)N2CCCCC2)cc1)N1CCN(CCN2C(=O)c3cccc4cccc(c34)C2=O)CC1,IC50,[5],> 20 µM (inactive)
same,IC50,[6],6.79 µM (active)
same,IC50,[7],> 20 µM (inactive)
same,IC50,[8],6.57 µM (active)
same,IC50,[9],> 20 µM (inactive)
same,IC50,[10],5.55 µM (active)
same,IC50,[11],8.84 µM (active)
same,EC50,[12],> 20 µM (inactive)
same,EC50,[13],> 20 µM (inactive)
same,IC50,[14],6.08 µM (active)
Clc1cc(CSc2ccccc2)nc(-c2ccccc2)n1,IC50,[15],14.1 µM (active)
same,EC50,[16],> 150 µM (not active)
same,IC50,[17],> 100 µM (not active)
same,EC50,[18],> 150 µM (not active)
same,EC50,[19],33.8 µM (active)
same,IC50,[20],> 100 µM (inactive)
O=C(Nc1nc2ccccc2n1Cc1ccccc1Cl)c1ccc(Cl)cc1,IC50,[6],> 20 µM (inactive)
same,IC50,[9],> 20 µM (inactive)
same,IC50,[10],> 20 µM (inactive)
same,IC50,[14],> 20 µM (inactive)
O=C(N/N=C/c1ccccc1Cl)c1nc(O)c2cc([N+](=O)[O-])ccc2n1,IC50,[21],30.2 µM (inactive)
same,IC50,[22],> 158 µM (not active)
same,IC50,[15],6.91 µM (active)
same,IC50,[23],> 158 µM (inactive)
same,IC50,[24],12.8 µM (active)
same,IC50,[25],10.1 µM (active)
